Laboratory results: PubChem BioAssay AID248 (DTP/NCI, 2004)
Toxic doses and inconclusive results are not listed. No stated cut-off is given here; in the data, active means T/C of 150% or more; inactive means T/C below 125%.

Tested on: L1210 leukemia ip in BDF1 mice, survival T/C
Assay: NCI In Vivo Anticancer Drug Screen. Data for tumor model L1210 Leukemia (intraperitoneal) in B6D2F1 (BDF1) mice
Settings: endpoint: mean survival time, higher = longer survival
Procedure, shortened: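 Mice bearing the transplanted tumor received compound or vehicle. Survival of the treated group was divided by that of the vehicle-treated control group to give the ratio.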

[1] = dose: 100.0 mg/kg/injection, schedule: Q04DX003 (ip), vehicle: saline
[2] = dose: 200.0 mg/kg/injection, schedule: Q04DX003 (ip), vehicle: saline
[3] = dose: 400.0 mg/kg/injection, schedule: Q04DX003 (ip), vehicle: saline
[4] = dose: 100.0 mg/kg/injection, schedule: Q04DX003 (ip), vehicle: saline with Tween-80
[5] = dose: 200.0 mg/kg/injection, schedule: Q04DX003 (ip), vehicle: saline with Tween-80
[6] = dose: 400.0 mg/kg/injection, schedule: Q04DX003 (ip), vehicle: saline with Tween-80
[7] = dose: 100.0 mg/kg/injection, schedule: Q01DX001 (ip), vehicle: carboxymethylcellulose (CMC)
[8] = dose: 200.0 mg/kg/injection, schedule: Q01DX001 (ip), vehicle: carboxymethylcellulose (CMC)
[9] = dose: 400.0 mg/kg/injection, schedule: Q01DX001 (ip), vehicle: carboxymethylcellulose (CMC)
[10] = dose: 100.0 mg/kg/injection, schedule: Q04DX003 (ip), vehicle: Klucel (hydroxypropylcellulose) (HPC)
[11] = dose: 200.0 mg/kg/injection, schedule: Q04DX003 (ip), vehicle: Klucel (hydroxypropylcellulose) (HPC)
[12] = dose: 400.0 mg/kg/injection, schedule: Q04DX003 (ip), vehicle: Klucel (hydroxypropylcellulose) (HPC)
[13] = dose: 100.0 mg/kg/injection, schedule: Q01DX009 (ip), vehicle: saline with Tween-80
[14] = dose: 100.0 mg/kg/injection, schedule: Q04DX002 (ip), vehicle: Klucel (hydroxypropylcellulose) (HPC)
[15] = dose: 200.0 mg/kg/injection, schedule: Q01DX009 (ip), vehicle: saline with Tween-80
[16] = dose: 200.0 mg/kg/injection, schedule: Q04DX002 (ip), vehicle: Klucel (hydroxypropylcellulose) (HPC)
[17] = dose: 400.0 mg/kg/injection, schedule: Q04DX002 (ip), vehicle: Klucel (hydroxypropylcellulose) (HPC)

Measured: T/C

O=C(O)c1cccc(O)c1[N+](=O)[O-]
inactive: [1] 97 % of control | [2] 95 % of control | [3] 97 % of control

CCOC(=O)Nc1cc(NC(=O)OCC)cc([N+](=O)[O-])c1
inactive: [4] 110 % of control | [5] 102 % of control | [6] 89 % of control

O=C(CCN(Cc1ccccc1)Cc1ccccc1)c1csc2ccccc12
inactive: [7] 96 % of control | [8] 89 % of control | [9] 94 % of control

Cc1ccc(S(=O)(=O)N(c2ccc(I)cc2F)S(=O)(=O)c2ccc(C)cc2)cc1
inactive: [10] 98 % of control | [11] 97 % of control | [12] 108 % of control

C(=C(\C[P+](c1ccccc1)(c1ccccc1)c1ccccc1)c1ccccc1)/c1ccccc1
inactive: dose: 5.0 mg/kg/injection, schedule: Q01DX009 (ip), vehicle: saline with Tween-80 97 % of control | dose: 5.0 mg/kg/injection, schedule: Q04DX003 (ip), vehicle: saline with Tween-80 93 % of control | dose: 20.0 mg/kg/injection, schedule: Q04DX003 (ip), vehicle: saline with Tween-80 86 % of control

CCCCCCCCCCCCCCCC(=O)O
inactive: dose: 100.0 mg/kg/injection, schedule: Q01DX009 (ip), vehicle: Klucel (hydroxypropylcellulose) (HPC) 100 % of control | [10] 98 % of control | dose: 200.0 mg/kg/injection, schedule: Q01DX009 (ip), vehicle: Klucel (hydroxypropylcellulose) (HPC) 92 % of control | [11] 98 % of control | dose: 400.0 mg/kg/injection, schedule: Q01DX009 (ip), vehicle: Klucel (hydroxypropylcellulose) (HPC) 97 % of control | [12] 97 % of control

CCCCCCCCCCCCCCCC(=O)N(CC#N)CC#N
inactive: [10] 91 % of control | [11] 92 % of control | [12] 89 % of control

CC1=Nc2ccc([N+](=O)[O-])cc2N=C(C)C1
inactive: dose: 100.0 mg/kg/injection, schedule: Q01DX009 (ip), vehicle: saline 95 % of control | [1] 105 % of control | dose: 200.0 mg/kg/injection, schedule: Q01DX009 (ip), vehicle: saline 93 % of control | [2] 96 % of control | dose: 400.0 mg/kg/injection, schedule: Q01DX009 (ip), vehicle: saline 92 % of control | [3] 96 % of control

O=C(/C=C\c1ccc(Cl)cc1)c1ccccc1
inactive: [13] 91 % of control | [14] 89 % of control | dose: 100.0 mg/kg/injection, schedule: Q04DX002 (ip), vehicle: gum acacia 98 % of control | [15] 91 % of control | [16] 96 % of control | dose: 200.0 mg/kg/injection, schedule: Q04DX002 (ip), vehicle: gum acacia 95 % of control | dose: 400.0 mg/kg/injection, schedule: Q01DX009 (ip), vehicle: saline with Tween-80 86 % of control | [17] 96 % of control | dose: 400.0 mg/kg/injection, schedule: Q04DX002 (ip), vehicle: gum acacia 91 % of control

CCC(=O)c1ccc(OCC(CN2CCN(c3ccccc3OC)CC2)OC(C)=O)cc1 (configuration not stated)
inactive: [4] 97 % of control | [5] 105 % of control | [6] 100 % of control

CCOc1ccc(NC(=O)NCCBr)cc1
inactive: dose: 50.0 mg/kg/injection, schedule: Q01DX009 (ip), vehicle: saline with Tween-80 94 % of control | [13] 94 % of control

CC(Sc1ccc([N+](=O)[O-])cn1)C(=O)O (configuration not stated)
inactive: dose: 50.0 mg/kg/injection, schedule: Q01DX001 (ip), vehicle: carboxymethylcellulose (CMC) 107 % of control | [7] 101 % of control | [8] 101 % of control | [9] 109 % of control

CC12CCC3(CC1CC/C(=C\c1ccco1)C2=O)OCCO3 (configuration not stated)
inactive: dose: 100.0 mg/kg/injection, schedule: Q01DX001 (ip), vehicle: saline 101 % of control | [1] 108 % of control | dose: 200.0 mg/kg/injection, schedule: Q01DX001 (ip), vehicle: saline 92 % of control | [2] 95 % of control | dose: 400.0 mg/kg/injection, schedule: Q01DX001 (ip), vehicle: saline 97 % of control | [3] 98 % of control

CC(C(=O)c1cc(O)c(O)cc1C(O)(C(F)(F)F)C(F)(F)F)C(O)(C(F)(F)F)C(F)(F)F (configuration not stated)
inactive: [4] 102 % of control | [5] 98 % of control | [6] 98 % of control

Cc1cccc2cc3c(ccc4ccccc43)c[n+]12
inactive: dose: 2.0 mg/kg/injection, schedule: Q01DX015 (ip), vehicle: carboxymethylcellulose (CMC) 101 % of control | dose: 4.0 mg/kg/injection, schedule: Q01DX015 (ip), vehicle: carboxymethylcellulose (CMC) 108 % of control | dose: 5.0 mg/kg/injection, schedule: Q04DX003 (ip), vehicle: Klucel (hydroxypropylcellulose) (HPC) 106 % of control | dose: 6.25 mg/kg/injection, schedule: Q01DX009 (ip), vehicle: saline with Tween-80 98 % of control | dose: 6.25 mg/kg/injection, schedule: Q04DX003 (ip), vehicle: saline 93 % of control | dose: 8.0 mg/kg/injection, schedule: Q01DX015 (ip), vehicle: carboxymethylcellulose (CMC) 105 % of control | dose: 10.0 mg/kg/injection, schedule: Q04DX003 (ip), vehicle: Klucel (hydroxypropylcellulose) (HPC) 103 % of control | dose: 12.5 mg/kg/injection, schedule: Q01DX001 (ip), vehicle: saline 98 % of control | dose: 12.5 mg/kg/injection, schedule: Q01DX009 (ip), vehicle: saline with Tween-80 115 % of control | dose: 12.5 mg/kg/injection, schedule: Q04DX003 (ip), vehicle: saline 97 % of control | dose: 20.0 mg/kg/injection, schedule: Q04DX003 (ip), vehicle: Klucel (hydroxypropylcellulose) (HPC) 100 % of control | dose: 25.0 mg/kg/injection, schedule: Q01DX001 (ip), vehicle: saline 97 % of control | dose: 25.0 mg/kg/injection, schedule: Q04DX003 (ip), vehicle: saline 97 % of control | dose: 40.0 mg/kg/injection, schedule: Q04DX003 (ip), vehicle: Klucel (hydroxypropylcellulose) (HPC) 97 % of control | dose: 80.0 mg/kg/injection, schedule: Q04DX003 (ip), vehicle: Klucel (hydroxypropylcellulose) (HPC) 100 % of control

CC(=O)N(Cl)c1ccc(Cl)cc1Cl
inactive: [14] 100 % of control | [16] 98 % of control | [17] 91 % of control

Cc1ccc(C(=O)O)cc1
inactive: [13] 90 % of control | [15] 88 % of control

O=C(CC(CC(=O)c1ccccc1)c1ccccn1)c1ccccc1
inactive: dose: 50.0 mg/kg/injection, schedule: Q01DX001 (ip), vehicle: other 105 % of control | dose: 100.0 mg/kg/injection, schedule: Q01DX001 (ip), vehicle: other 100 % of control | dose: 200.0 mg/kg/injection, schedule: Q01DX001 (ip), vehicle: other 96 % of control | dose: 400.0 mg/kg/injection, schedule: Q01DX001 (ip), vehicle: other 102 % of control

O=C1c2ccccc2C(=O)c2c1ccc1c2[nH]c2ccccc21
inactive: [7] 86 % of control | [8] 91 % of control | [9] 89 % of control

CC1(C)CC(OP(=O)(Cl)OC2CC(C)(C)N(O)C(C)(C)C2)CC(C)(C)N1O
inactive: dose: 100.0 mg/kg/injection, schedule: Q01DX001 (ip), vehicle: water 97 % of control | dose: 200.0 mg/kg/injection, schedule: Q01DX001 (ip), vehicle: water 94 % of control | dose: 400.0 mg/kg/injection, schedule: Q01DX001 (ip), vehicle: water 94 % of control
